For assay [1], the system named is nuclear p52 (non-canonical NF-κB signaling). Nature of the assay: High content nuclear p52 imaging, anti-LTβR-stimulated HeLa cells. It is filed as cell-based, human. The note with it: Homo sapiens, anti-LTβR induced, mean ± SD. As for the experimental part:
The HeLa cell line was used to define the cellular selectivity of NIK inhibitors toward inhibition of classical vs. non-classical NF-κB signaling using high content cellular imaging assays. For the nuclear translocation assay p52 (non-canonical NF-κB signaling), HeLa cells were treated with different concentrations of compounds previously diluted in DMSO (final [DMSO] = 0.2% in all wells) in DMEM medium (10% FBS, 2 mM Glutamine) and then stimulated with 300 ng/mL of an anti-lymphotoxin beta receptor antibody for 4.5 h. In the REL-A nuclear translocation assay, HeLa cells were incubated with compounds for 4 h 50 min before stimulating them with 2 ng/mL TNF (R&D Systems) for 10 min. Cells were fixed with 4% paraformaldehyde, permeabilized by adding 0.1% Triton X-100 in phosphate buffered saline, and then are incubated with either 2 μg/mL anti-p52 antibody or 400 ng/mL anti-REL-A (p65) antibody. Finally, the cells are incubated with an Alexa488-labeled secondary antibody (Invitrogen) and DRAQ5 DNA stain (Biostatus). Imaging was carried out using an Opera reader (Perkin Elmer) and data were analyzed with Acapella software (Perkin Elmer). The p52 or REL-A translocation into the nucleus is quantified by the ratio of the nuclear to cytoplasmic signal intensity.

In a further assay the target is T1, MELK (Homo sapiens, UniProt Q14680).
T1 construct: purchased Invitrogen / ThermoFisher SelectScreen
Kind of assay: SelectScreen kinase panel. In kind it is biochemical. The method in brief: (§1)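 Human kinases were profiled in Invitrogen's SelectScreen broad panel. Depending on the enzyme, inhibition was assessed by peptide phosphorylation (Z′-LYTE), by ADP formation (Adapta), or by displacement at the ATP site (LanthaScreen), and then reported as mean percent inhibition.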

A further assay concerns the target T2, RSK3 (Homo sapiens, UniProt Q15349).
T2 construct: purchased Invitrogen / ThermoFisher SelectScreen
Kind of assay: SelectScreen kinase panel. It is filed as biochemical. The procedure, abridged:
as §1

The target of the next assay is T3, CaMKI_delta (Homo sapiens, UniProt Q8IU85).
T3 construct: purchased Invitrogen / ThermoFisher SelectScreen
Nature of the assay: SelectScreen kinase panel. It is filed as biochemical. The method in brief:
as §1

Another assay addresses T4, MST3 (Homo sapiens, UniProt Q9Y6E0).
T4 construct: purchased Invitrogen / ThermoFisher SelectScreen
Nature of the assay: SelectScreen kinase panel. In kind it is biochemical. The method in brief:
as §1

The target of another assay is T5, CK1_gamma2 (Homo sapiens, UniProt P78368).
T5 construct: purchased Invitrogen / ThermoFisher SelectScreen
Kind of assay: SelectScreen kinase panel. In kind it is biochemical. The procedure, abridged: as §1

The next assay deals with T6, PhK_gamm1 (Homo sapiens, UniProt Q16816).
T6 construct: purchased Invitrogen / ThermoFisher SelectScreen
Nature of the assay: SelectScreen kinase panel. It is filed as biochemical. The method in brief:
as §1

The target of another assay is T7, EphA8 (Homo sapiens, UniProt P29322).
T7 construct: purchased Invitrogen / ThermoFisher SelectScreen
Kind of assay: SelectScreen kinase panel. It is filed as biochemical. The procedure, abridged: as §1

In a further assay the target is T8, PRKAA1 (Homo sapiens, UniProt Q13131).
T8 construct: purchased Invitrogen / ThermoFisher SelectScreen
Kind of assay: SelectScreen kinase panel. In kind it is biochemical. The method in brief:
as §1

For another assay, the target named is T9, PKC_theta (Homo sapiens, UniProt Q04759).
T9 construct: purchased Invitrogen / ThermoFisher SelectScreen
Kind of assay: SelectScreen kinase panel. In kind it is biochemical. The procedure, abridged:
as §1

The next assay has as its target T10, FAK (Homo sapiens, UniProt Q05397).
T10 construct: purchased Invitrogen / ThermoFisher SelectScreen
Kind of assay: SelectScreen kinase panel. In kind it is biochemical. The method in brief:
as §1

For another assay, the target named is T11, IRR (Homo sapiens, UniProt P14616).
T11 construct: purchased Invitrogen / ThermoFisher SelectScreen
Nature of the assay: SelectScreen kinase panel. In kind it is biochemical. The procedure, abridged:
as §1

A further assay addresses T12, p38_alpha (Homo sapiens, UniProt Q16539).
T12 construct: purchased Invitrogen / ThermoFisher SelectScreen
Nature of the assay: SelectScreen kinase panel. In kind it is biochemical. The method in brief: as §1

The next assay has as its target T13, GSK3_alpha (Homo sapiens, UniProt P49840).
T13 construct: purchased Invitrogen / ThermoFisher SelectScreen
Nature of the assay: SelectScreen kinase panel. It is filed as biochemical. The procedure, abridged:
as §1

The next assay has as its target T14, EphB1 (Homo sapiens, UniProt P54762).
T14 construct: purchased Invitrogen / ThermoFisher SelectScreen
Nature of the assay: SelectScreen kinase panel. In kind it is biochemical. The procedure, abridged:
as §1

The next assay deals with T15, GRK6 (Homo sapiens, UniProt P43250).
T15 construct: purchased Invitrogen / ThermoFisher SelectScreen
T15 sequence (P43250 whole entry): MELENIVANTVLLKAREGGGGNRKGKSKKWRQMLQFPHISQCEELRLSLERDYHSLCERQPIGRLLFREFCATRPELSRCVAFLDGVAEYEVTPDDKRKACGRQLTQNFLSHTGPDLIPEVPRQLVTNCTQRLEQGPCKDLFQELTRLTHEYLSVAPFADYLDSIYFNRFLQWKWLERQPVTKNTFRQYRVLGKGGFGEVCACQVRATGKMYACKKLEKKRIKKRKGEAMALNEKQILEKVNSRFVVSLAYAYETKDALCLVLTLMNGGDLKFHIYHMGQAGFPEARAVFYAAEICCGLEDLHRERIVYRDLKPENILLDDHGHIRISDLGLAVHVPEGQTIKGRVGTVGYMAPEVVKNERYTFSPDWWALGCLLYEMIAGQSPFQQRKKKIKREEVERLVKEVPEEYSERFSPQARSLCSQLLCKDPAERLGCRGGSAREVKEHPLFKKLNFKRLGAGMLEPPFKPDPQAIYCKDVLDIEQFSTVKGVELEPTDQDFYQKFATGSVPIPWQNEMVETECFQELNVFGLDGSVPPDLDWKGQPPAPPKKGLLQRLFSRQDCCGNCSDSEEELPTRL
Kind of assay: SelectScreen kinase panel. It is filed as biochemical. The method in brief:
as §1

The next assay has as its target T16, IGF1R (Homo sapiens, UniProt P08069).
T16 construct: purchased Invitrogen / ThermoFisher SelectScreen
Kind of assay: SelectScreen kinase panel. It is filed as biochemical. The procedure, abridged:
as §1

The target in a further assay is T17, Kit (Homo sapiens, UniProt P10721).
T17 construct: purchased Invitrogen / ThermoFisher SelectScreen
T17 sequence (P10721 26-976): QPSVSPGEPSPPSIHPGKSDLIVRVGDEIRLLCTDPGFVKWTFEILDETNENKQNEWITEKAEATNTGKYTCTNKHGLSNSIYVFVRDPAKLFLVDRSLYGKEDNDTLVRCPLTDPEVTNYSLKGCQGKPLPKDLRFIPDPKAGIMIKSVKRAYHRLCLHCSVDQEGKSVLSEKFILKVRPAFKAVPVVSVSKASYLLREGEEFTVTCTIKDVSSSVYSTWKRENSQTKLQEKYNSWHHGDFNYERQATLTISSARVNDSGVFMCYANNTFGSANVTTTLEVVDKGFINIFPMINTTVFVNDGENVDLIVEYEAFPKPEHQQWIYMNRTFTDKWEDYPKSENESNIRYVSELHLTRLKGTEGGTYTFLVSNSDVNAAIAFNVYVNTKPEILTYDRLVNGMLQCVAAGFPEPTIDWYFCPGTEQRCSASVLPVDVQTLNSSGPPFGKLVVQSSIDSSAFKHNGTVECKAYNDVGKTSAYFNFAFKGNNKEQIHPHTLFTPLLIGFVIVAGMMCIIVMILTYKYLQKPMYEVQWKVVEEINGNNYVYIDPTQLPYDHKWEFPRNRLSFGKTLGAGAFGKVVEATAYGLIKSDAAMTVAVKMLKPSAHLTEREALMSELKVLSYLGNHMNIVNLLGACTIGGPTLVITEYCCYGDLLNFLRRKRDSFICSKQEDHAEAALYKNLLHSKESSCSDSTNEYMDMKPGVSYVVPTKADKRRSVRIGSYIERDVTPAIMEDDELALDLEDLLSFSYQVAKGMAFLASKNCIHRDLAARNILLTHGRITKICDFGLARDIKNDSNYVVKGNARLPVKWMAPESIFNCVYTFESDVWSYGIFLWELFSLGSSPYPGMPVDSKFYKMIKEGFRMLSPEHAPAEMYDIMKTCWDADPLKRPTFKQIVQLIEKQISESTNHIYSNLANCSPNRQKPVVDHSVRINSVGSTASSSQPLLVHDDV
Kind of assay: SelectScreen kinase panel. In kind it is biochemical. The procedure, abridged: as §1

For a further assay, the target named is T18, SRPK1 (Homo sapiens, UniProt Q96SB4).
T18 construct: purchased Invitrogen / ThermoFisher SelectScreen
Nature of the assay: SelectScreen kinase panel. It is filed as biochemical. The procedure, abridged: as §1

A further assay addresses T19, CDK2/CyclinA (Homo sapiens, UniProt P24941).
T19 construct: purchased Invitrogen / ThermoFisher SelectScreen
Nature of the assay: SelectScreen kinase panel. In kind it is biochemical. The method in brief:
as §1

T14 sequence (P54762 18-984): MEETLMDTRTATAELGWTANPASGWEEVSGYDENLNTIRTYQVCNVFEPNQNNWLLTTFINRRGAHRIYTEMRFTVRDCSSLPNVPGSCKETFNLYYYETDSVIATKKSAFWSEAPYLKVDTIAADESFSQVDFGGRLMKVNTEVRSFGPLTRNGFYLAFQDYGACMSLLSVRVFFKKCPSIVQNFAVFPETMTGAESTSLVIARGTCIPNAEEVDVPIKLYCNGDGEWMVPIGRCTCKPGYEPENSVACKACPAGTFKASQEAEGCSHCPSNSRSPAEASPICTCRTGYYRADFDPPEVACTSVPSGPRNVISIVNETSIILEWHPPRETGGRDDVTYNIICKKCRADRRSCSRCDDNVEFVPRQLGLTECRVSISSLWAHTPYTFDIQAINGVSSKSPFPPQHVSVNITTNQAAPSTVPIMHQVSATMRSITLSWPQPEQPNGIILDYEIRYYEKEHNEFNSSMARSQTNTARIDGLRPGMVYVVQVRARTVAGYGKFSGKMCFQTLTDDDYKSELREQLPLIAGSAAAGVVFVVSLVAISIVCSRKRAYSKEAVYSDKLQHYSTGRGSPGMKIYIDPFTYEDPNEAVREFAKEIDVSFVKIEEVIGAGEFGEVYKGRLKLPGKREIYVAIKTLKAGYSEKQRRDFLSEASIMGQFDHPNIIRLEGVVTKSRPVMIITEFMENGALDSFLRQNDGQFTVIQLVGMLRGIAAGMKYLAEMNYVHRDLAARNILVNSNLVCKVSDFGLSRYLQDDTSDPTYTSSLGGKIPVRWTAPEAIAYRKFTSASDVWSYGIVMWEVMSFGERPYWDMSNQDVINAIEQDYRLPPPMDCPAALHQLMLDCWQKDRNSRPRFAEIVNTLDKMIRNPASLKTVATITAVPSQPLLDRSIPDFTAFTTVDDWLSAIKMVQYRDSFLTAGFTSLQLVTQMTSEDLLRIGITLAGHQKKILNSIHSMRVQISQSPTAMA
T16 sequence (P08069 31-1367): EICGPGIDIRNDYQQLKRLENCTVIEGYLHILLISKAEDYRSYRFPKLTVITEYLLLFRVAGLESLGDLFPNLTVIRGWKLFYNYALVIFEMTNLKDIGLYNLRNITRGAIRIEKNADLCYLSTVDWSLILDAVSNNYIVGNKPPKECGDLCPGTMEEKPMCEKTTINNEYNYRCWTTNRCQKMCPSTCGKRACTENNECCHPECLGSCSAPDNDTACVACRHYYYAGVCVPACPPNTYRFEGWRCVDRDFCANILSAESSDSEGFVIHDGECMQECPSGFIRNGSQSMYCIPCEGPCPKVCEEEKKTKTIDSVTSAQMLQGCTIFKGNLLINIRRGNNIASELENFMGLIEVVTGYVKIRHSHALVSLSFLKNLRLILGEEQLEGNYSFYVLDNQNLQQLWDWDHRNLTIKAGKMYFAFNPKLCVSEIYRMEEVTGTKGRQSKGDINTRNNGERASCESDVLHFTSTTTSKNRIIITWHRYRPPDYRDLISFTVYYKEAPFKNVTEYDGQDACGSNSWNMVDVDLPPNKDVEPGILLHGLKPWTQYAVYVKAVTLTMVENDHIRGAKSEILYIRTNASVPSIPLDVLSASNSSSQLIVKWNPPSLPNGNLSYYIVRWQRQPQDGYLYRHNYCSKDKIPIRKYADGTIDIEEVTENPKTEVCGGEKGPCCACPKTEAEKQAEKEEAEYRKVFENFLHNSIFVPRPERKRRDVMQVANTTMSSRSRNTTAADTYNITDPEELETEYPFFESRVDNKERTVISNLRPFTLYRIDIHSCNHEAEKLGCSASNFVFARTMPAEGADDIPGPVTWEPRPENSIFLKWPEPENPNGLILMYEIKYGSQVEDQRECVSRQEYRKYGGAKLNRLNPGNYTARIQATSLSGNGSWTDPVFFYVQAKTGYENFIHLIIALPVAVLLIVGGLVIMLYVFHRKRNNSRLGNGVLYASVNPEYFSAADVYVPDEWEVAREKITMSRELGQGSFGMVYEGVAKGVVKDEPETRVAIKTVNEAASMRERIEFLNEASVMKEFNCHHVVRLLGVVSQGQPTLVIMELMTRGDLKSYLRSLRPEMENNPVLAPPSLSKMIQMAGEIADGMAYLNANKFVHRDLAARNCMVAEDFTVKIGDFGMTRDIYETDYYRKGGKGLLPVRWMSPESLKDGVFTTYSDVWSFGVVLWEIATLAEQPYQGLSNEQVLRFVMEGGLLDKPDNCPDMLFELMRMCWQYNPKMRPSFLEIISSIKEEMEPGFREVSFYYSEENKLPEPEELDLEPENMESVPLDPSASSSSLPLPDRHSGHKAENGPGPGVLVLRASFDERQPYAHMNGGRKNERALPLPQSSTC
T2 sequence (Q15349 whole entry): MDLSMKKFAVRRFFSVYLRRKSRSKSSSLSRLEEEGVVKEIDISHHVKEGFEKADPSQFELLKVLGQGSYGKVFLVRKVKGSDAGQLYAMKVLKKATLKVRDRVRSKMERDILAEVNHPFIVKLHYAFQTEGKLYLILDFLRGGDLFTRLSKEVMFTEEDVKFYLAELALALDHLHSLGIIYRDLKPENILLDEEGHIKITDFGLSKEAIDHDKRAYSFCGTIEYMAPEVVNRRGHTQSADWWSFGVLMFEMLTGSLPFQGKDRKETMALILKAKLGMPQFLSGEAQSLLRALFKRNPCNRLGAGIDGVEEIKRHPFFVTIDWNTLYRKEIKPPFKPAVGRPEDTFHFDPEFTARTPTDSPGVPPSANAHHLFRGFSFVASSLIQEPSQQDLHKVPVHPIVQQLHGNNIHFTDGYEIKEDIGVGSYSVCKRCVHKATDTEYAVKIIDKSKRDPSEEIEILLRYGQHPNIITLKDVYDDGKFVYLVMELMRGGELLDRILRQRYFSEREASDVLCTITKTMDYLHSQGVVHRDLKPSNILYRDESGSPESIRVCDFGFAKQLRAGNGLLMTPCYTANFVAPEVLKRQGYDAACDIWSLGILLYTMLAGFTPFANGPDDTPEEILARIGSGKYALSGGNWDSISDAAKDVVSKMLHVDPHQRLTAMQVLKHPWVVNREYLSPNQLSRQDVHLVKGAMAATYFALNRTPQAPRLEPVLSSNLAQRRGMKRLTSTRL
T4 sequence (Q9Y6E0 whole entry): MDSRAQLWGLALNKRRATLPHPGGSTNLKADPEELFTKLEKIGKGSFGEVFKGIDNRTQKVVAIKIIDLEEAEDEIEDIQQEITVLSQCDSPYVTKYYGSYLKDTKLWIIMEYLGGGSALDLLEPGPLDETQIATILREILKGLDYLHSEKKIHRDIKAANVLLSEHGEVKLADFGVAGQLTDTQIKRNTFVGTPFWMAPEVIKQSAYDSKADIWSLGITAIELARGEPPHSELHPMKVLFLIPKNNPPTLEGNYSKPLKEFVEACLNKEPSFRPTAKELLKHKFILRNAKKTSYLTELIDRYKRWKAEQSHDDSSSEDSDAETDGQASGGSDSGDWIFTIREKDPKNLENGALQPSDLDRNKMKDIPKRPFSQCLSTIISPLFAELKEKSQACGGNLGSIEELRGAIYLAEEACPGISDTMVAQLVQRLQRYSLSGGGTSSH

For `COc1cc(C(N)=O)nc(-c2cccc(C#C[C@]3(O)CCN(C)C3=O)c2)c1` [NIK SMI1], inhibition in assay [1] was half-maximal at 70 nM (IC50). In addition, the inhibition at 1 µM on MELK turned out to be 26.5%; against RSK3, 5%; against CaMKI_delta, 15%; at MST3, 32.5%; at CK1_gamma2 it was 8.5%; on PhK_gamm1 it was 6.5%. Further, the inhibition at 1 µM at EphA8 is -3.5%; against PRKAA1, 20.5%; against PKC_theta it was -6%; against FAK it was 10.5%; on IRR, 5%; against p38_alpha, -7.5%. The inhibition at 1 µM against GSK3_alpha is 15%; against EphB1, 7%; at GRK6, 9%; on IGF1R, 8.5%; against Kit it was -3.5%; at SRPK1 it was 8.5%. In addition, the inhibition at 1 µM at CDK2/CyclinA was -1.5%.

Values taken from paper PMC5766581, “NF-κB inducing kinase is a therapeutic target for systemic lupus erythematosus” (Nature Communications, 2018).
